Laboratory results: patent US20170015555A1, “LONG-TERM PRESERVATION AND NOVEL APPLICATION OF CHLOROUS ACID AQUEOUS SOLUTION FORMULATION” (priority 2013, published 2017)

System: Microbes of the genus Salmonella: Salmonella Enteritidis IF03313
Type: cell-based
Conditions: stored at 25° C. Day 7; 1000 ppm available chlorine
Description: 1) Chlorous acid aqueous solution formulation (see Example 1: Table 11) Treatment sheet (material: 100% cotton): (about 27×40 cm) *Impregnated at a ratio of weight of treatment sheet (g): amount of liquid (ml)=1:3 2) Imitation vomit Miso solution: adjusted to pH of 2 with hydrochloric acid 3) Test Microbes that were Used E. coli: Escherichia coli IF03927 Staphylococcus aureus: Staphylococcus aureus IF0 12732 Thermoduric Microbes (Bacillus cereus): Bacillus cereus NBRC15305 Microbes of the genus Salmonella: Salmonella Enteritidis IF03313 Enterohemorrhagic Escherichia coli O157: Escherichia coli O157 Enterohemorrhagic Escherichia coli O111: Escherichia coli O111 Enterohemorrhagic Escherichia coli O26: Escherichia coli O26
(1) Imitation vomit was spread in an area about the size of an A4 sheet. (2) 5 dry sheets were laid thereon. (3) An agent solution was poured on the dry sheets to wipe off the imitation vomit. (4) A cotton swab was soaked with sterile saline. A portion where imitation vomit was spread was scrubbed with the cotton swab to collect microbes remaining on the floor. After suspending in saline, the solution was spread on a petri dish and cultured. The number of each of the microbes was measured. (5) Test operations 3 and 4 were repeated a total of 7 times (repeated until the imitation vomit could be removed completely).

[Na] [Sodium]
<10: Number of Times Wiped 1 Time (remaining microbes) | Number of Times Wiped 2 Times (remaining microbes) | Number of Times Wiped 3 Times (remaining microbes)
